Legend:
[1] = tested on: isolated rat liver mitochondria; assay: Mitochondrial oxygen consumption (glutamate/malate or succinate driven, state 4 and state 3); type: biochemical; conditions: DMSO treated samples set as 1; for State 3 respiration driven by succinate at 10XCmax: key: 0 indicates that the drug had no effects (negative); for State 3 respiration driven by succinate at 1XCmax: key: 0 indicates that the drug had no effects (negative)
How it was run: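 Oxygen uptake on glutamate/malate or on succinate defined state 4; ADP added 3 min later gave state 3. Mitochondria isolated from rat liver by differential centrifugation, adjusted to 1 mg/ml and pretreated 5 min with inhibitor (0.1% DMSO final). Values relative to DMSO control, set to 1.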

RCC I = RCC I activity in submitochondrial particles; type: biochemical, rat; parameters: key to RCC I at 10XCmax / RCC I at 100XCmax / RCC I at 50XCmax / RCC I at 30XCmax / RCC I at 20XCmax: activity relative to DMSO-treated controls (control set as 1 = 100%); conditions: 10XCmax; relative to DMSO treated samples
How it was run: (§1)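 Rat submitochondrial particles (1 mg/ml) were treated with test compounds for 15 min. RCC IV, like RCC III, was monitored at 550 nm every 10 s for 2 min, and RCC I/V at 340 nm each minute for 6 min. DMSO samples defined unit activity.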

RCC II = target: T1, RCC II (Rattus norvegicus, UniProt P21913+Q641Z9+Q6PCT8+Q920L2); assay: RCC II activity in submitochondrial particles; type: biochemical; parameters: key: activity relative to DMSO-treated controls (control set as 1 = 100%); conditions: relative to DMSO treated samples
T1 construct: Submitochondrial particles were prepared by subjecting the intact mitochondria to three successive freeze–thaw cycles; from tissue; host or cells: rat liver mitochondria, used as submitochondrial particles
How it was run: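 Activity relative to DMSO (set as 1) after 15-min exposure of submitochondrial particles (1 mg/ml) to compound. RCC I is defined as rotenone-sensitive activity and RCC II is followed at 600 nm over 6 min.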

RCC III = RCC III activity in submitochondrial particles; type: biochemical, rat; parameters: key to RCC III at 100XCmax: activity relative to DMSO-treated controls (control set as 1 = 100%); conditions: 100XCmax; relative to DMSO treated samples
How it was run: as §1

RCC IV = RCC IV activity in submitochondrial particles; type: biochemical, rat; parameters: key to RCC IV at 50XCmax / RCC IV at 100XCmax: activity relative to DMSO-treated controls (control set as 1 = 100%); conditions: 50XCmax; relative to DMSO treated samples; in %
How it was run: as §1

RCC V = RCC V activity in submitochondrial particles; type: biochemical, rat; conditions: relative to DMSO treated samples; for RCC V at 5XCmax: key: 0 indicates that the drug had no effects (negative)
How it was run: as §1

[2] = tested on: isolated rat liver mitochondria; assay: Mitochondrial inner membrane potential (MMP), Rhodamine 123; type: biochemical; conditions: difference in signal between KI and DMSO treated samples at the end of experiments
Excerpt: Fig. 3 KI effects on mitochondrial inner membrane potential (MMP). […] In a, c, data are means and standard derivations from three separate experiments. *p < 0.05 as compared to DMSO-treated samples at the end of experiments. In b, data are means of two independent experiments

[3] = tested on: isolated rat liver mitochondria; assay: Mitochondrial swelling (absorbance at 535 nm); type: biochemical; conditions: difference in signal between KI and DMSO treated samples at the end of experiments; for Swelling 5XCmax: key: 0 indicates that the drug had no effects (negative)
[4] = cited from earlier work
[5] = tested on: isolated rat liver mitochondria; assay: Mitochondrial ROS production (CM-H2DCFDA); conditions: DMSO treated samples set as 1

T1 sequence (Q920L2 35-656): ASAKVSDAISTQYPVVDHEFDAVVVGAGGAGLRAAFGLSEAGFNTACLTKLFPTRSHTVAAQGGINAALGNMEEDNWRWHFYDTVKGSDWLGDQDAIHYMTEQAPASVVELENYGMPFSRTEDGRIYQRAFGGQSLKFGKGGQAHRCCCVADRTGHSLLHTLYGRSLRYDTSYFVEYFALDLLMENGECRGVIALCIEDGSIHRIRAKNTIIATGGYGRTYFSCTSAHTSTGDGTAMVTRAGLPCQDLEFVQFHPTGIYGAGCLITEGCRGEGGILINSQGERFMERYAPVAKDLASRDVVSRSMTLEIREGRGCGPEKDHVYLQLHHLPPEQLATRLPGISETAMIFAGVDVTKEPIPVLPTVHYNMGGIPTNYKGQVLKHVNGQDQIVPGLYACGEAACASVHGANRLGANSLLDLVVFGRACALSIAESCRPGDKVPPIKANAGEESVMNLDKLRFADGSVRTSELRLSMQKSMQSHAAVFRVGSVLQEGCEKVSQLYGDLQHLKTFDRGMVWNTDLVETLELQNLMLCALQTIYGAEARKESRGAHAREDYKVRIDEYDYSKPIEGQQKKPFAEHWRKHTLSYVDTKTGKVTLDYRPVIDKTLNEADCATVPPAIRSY
T1 sequence (P21913 31-282): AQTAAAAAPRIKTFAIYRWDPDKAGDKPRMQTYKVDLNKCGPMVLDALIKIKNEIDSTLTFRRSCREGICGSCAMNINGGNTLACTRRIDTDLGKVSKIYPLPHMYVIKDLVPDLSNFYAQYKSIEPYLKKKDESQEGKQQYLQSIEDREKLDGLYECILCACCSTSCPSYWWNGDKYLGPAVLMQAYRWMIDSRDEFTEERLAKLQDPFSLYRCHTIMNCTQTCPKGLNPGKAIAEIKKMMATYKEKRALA
T1 sequence (Q641Z9 1-169): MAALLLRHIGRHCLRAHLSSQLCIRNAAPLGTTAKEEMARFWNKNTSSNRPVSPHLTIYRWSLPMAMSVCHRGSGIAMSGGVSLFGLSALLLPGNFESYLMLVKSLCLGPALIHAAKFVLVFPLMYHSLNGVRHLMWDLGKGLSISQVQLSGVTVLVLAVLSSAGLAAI
T1 sequence (Q6PCT8 57-159): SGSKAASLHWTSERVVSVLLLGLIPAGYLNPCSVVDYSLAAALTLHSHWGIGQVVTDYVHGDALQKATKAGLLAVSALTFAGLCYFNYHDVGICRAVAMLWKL

CCN(CC)CCNC(=O)c1c(C)[nH]c(/C=C2\C(=O)Nc3ccc(F)cc32)c1C [sunitinib malate]
State 3 respiration driven by glutamate/malate at 1XCmax ([1]; 1XCmax): 0
State 3 respiration driven by succinate at 1XCmax ([1]; 1XCmax): 0
State 4 respiration driven by glutamate/malate at 1XCmax ([1]; 1XCmax): 0
State 4 respiration driven by succinate at 1XCmax ([1]; 1XCmax): 0
State 3 respiration driven by glutamate/malate at 2.5XCmax ([1]; 2.5XCmax): 0
State 3 respiration driven by succinate at 2.5XCmax ([1]; 2.5XCmax): 0
State 4 respiration driven by glutamate/malate at 2.5XCmax ([1]; 2.5XCmax): 0
State 4 respiration driven by succinate at 2.5XCmax ([1]; 2.5XCmax): 0
State 3 respiration driven by glutamate/malate at 5XCmax ([1]; 5XCmax): 0
State 3 respiration driven by succinate at 5XCmax ([1]; 5XCmax): 0
State 4 respiration driven by glutamate/malate at 5XCmax ([1]; 5XCmax): 0
State 4 respiration driven by succinate at 5XCmax ([1]; 5XCmax): 0
State 3 respiration driven by glutamate/malate at 10XCmax ([1]; 10XCmax): 0
State 3 respiration driven by succinate at 10XCmax ([1]; 10XCmax): 0
State 4 respiration driven by glutamate/malate at 10XCmax ([1]; 10XCmax): 0
State 4 respiration driven by succinate at 10XCmax ([1]; 10XCmax): 0
State 3 respiration driven by glutamate/malate at 20XCmax ([1]; 20XCmax): 0
State 3 respiration driven by succinate at 20XCmax ([1]; 20XCmax): 0
State 4 respiration driven by glutamate/malate at 20XCmax ([1]; 20XCmax): 0
State 4 respiration driven by succinate at 20XCmax ([1]; 20XCmax): 0
State 3 respiration driven by glutamate/malate at 30XCmax ([1]; 30XCmax): 0
State 3 respiration driven by succinate at 30XCmax ([1]; 30XCmax): 0
State 4 respiration driven by glutamate/malate at 30XCmax ([1]; 30XCmax): 0
State 4 respiration driven by succinate at 30XCmax ([1]; 30XCmax): 0
State 3 respiration driven by glutamate/malate at 50XCmax ([1]; 50XCmax): 0
State 3 respiration driven by succinate at 50XCmax ([1]; 50XCmax): 0
State 4 respiration driven by glutamate/malate at 50XCmax ([1]; 50XCmax): 0
State 4 respiration driven by succinate at 50XCmax ([1]; 50XCmax): 0
State 3 respiration driven by glutamate/malate at 100XCmax ([1]; 100XCmax): 0
State 3 respiration driven by succinate at 100XCmax ([1]; 100XCmax): 0
State 4 respiration driven by glutamate/malate at 100XCmax ([1]; 100XCmax): 0
State 4 respiration driven by succinate at 100XCmax ([1]; 100XCmax): 0
RCC I at 10XCmax (RCC I): 0
RCC II at 1.0XCmax (RCC II; 1.0XCmax): 0
RCC II at 2.5XCmax (RCC II; 2.5XCmax): 0
RCC II at 5XCmax (RCC II; 5XCmax): 0
RCC II at 10XCmax (RCC II; 10XCmax): 0
RCC II at 20XCmax (RCC II; 20XCmax): 0
RCC II at 30XCmax (RCC II; 30XCmax): 0
RCC II at 50XCmax (RCC II; 50XCmax): 0
RCC II at 100XCmax (RCC II; 100XCmax): 0
RCC III at 100XCmax (RCC III): 0
RCC IV at 50XCmax (RCC IV): 0
RCC V at 5XCmax (RCC V; 5XCmax): 0
RCC V at 50XCmax (RCC V; 50XCmax): 0
MMP measured by Rhodamine 123 at 1XCmax ([2]; 1XCmax): 0
MMP measured by Rhodamine 123 at 2.5XCmax ([2]; 2.5XCmax): 0
MMP measured by Rhodamine 123 at 5XCmax ([2]; 5XCmax): 0
MMP measured by Rhodamine 123 at 10XCmax ([2]; 10XCmax): 0
MMP measured by Rhodamine 123 at 20XCmax ([2]; 20XCmax): 0
MMP measured by Rhodamine 123 at 30XCmax ([2]; 30XCmax): 0
MMP measured by Rhodamine 123 at 50XCmax ([2]; 50XCmax): 0
MMP measured by Rhodamine 123 at 100XCmax ([2]; 100XCmax): 0
Swelling 1XCmax ([3]; 1XCmax): 0
Swelling 2.5XCmax ([3]; 2.5XCmax): 0
Swelling 5XCmax ([3]; 5XCmax): 0
Swelling 10XCmax ([3]; 10XCmax): 0
Swelling 20XCmax ([3]; 20XCmax): 0
Swelling 30XCmax ([3]; 30XCmax): 0
Swelling 50XCmax ([3]; 50XCmax): 0
Swelling 100XCmax ([3]; 100XCmax): 0
DILI potential (based on labeling) ([4]; 1 = DILI positive, 0 = negative, ref product labeling): 1
Labeling for DILI ([4]; in vivo): BBW: fatal DILI
ROS measured by CM-H2DCFDA at 1XCmax ([5]; 1XCmax): 0
ROS measured by CM-H2DCFDA at 2.5XCmax ([5]; 2.5XCmax): 0
ROS measured by CM-H2DCFDA at 5XCmax ([5]; 5XCmax): 0
ROS measured by CM-H2DCFDA at 10XCmax ([5]; 10XCmax): 0
ROS measured by CM-H2DCFDA at 20XCmax ([5]; 20XCmax): 0
ROS measured by CM-H2DCFDA at 30XCmax ([5]; 30XCmax): 0
ROS measured by CM-H2DCFDA at 50XCmax ([5]; 50XCmax): 0
ROS measured by CM-H2DCFDA at 100XCmax ([5]; 100XCmax): 0
